Measurements reported in EP4647433A1, “SHP2 INHIBITOR AND USES THEREOF” (Kanaph Therapeutics Inc., priority 2023, dated 2024).

Columns and labels:
H358 cells = assay: Cell viability (3D spheroid, 3D CellTiter-Glo); format: cell-based; conditions: Homo sapiens, NCI-H358, 120 h; H358 spheroids, 5 days treatment
Protocol: Human non-small cell lung cancer cell line H358 cells were purchased from the Korean Cell Line Bank. Cancer cell lines were cultured in the recommended RPMI-1640 medium supplemented with 10% fetal bovine serum (FBS) and 1% penicillin/streptomycin. Monolayer-cultured cancer cell lines were detached by treatment with Trypsin/EDTA, and 100 µL of cell suspension containing 4 x 10^3 cells was each dispensed into SPL3D™ Cell Floater, 96-well round plate, through cell line counting. After culturing for 72 hours to form spheroid, the cells were individually treated with the compounds according to the Examples, which had been serially diluted (minimum 1.5 nM, maximum 10 µM in concentration), and then cultured in a cell incubator for 5 days. To analyze cell viability, the cells were treated with 50 uL of 3D CellTiter-Glo, stirred for 5 minutes at 500 rpm in a plate shaker from Thermo Fisher Scientific, and incubated for 25 minutes at room temperature. Then, the luminescent values were measured using a Varioskan equipment from Thermo Fisher Scientific. IC50 values were obtained using GraphPad's Prism from the measured values depending on the concentration.
In the cell viability assay, when an IC50 value was 50 nM or more, + was indicated, when an IC50 value was 10 nM or more and less than 50 nM, ++ was indicated, and when an IC50 value was less than 10 nM, +++ was indicated.

[1] = Brain-plasma Pharmacokinetics; conditions: mouse, 20 mg/kg
Protocol: Nine male CD-1 mice (ICR mouse) aged 6 to 9 weeks were treated with the compounds according to the Examples at a concentration of 20 mg/kg. 0.025 mL of blood and brain tissue were collected at 1 hour, 8 hours, and 24 hours post-treatment, respectively. The collected blood was placed in an EDTA-K2 tube, centrifuged at 4°C at 3,200 x g for 10 minutes, and the supernatant plasma was collected. The brain tissue samples were collected immediately after euthanizing the CD-1 mice after blood collection and performing cardiac perfusion with cold saline. After collection, the brain tissues were washed with cold saline, wiped and dried, weighed, and homogenized using a homogenization buffer (15 mM PBS (pH 7.4): MeOH = 2:1) at a ratio of 1:3 (1 g of tissue to 3 mL of buffer, dilution ratio 4). Plasma and homogenized brain tissue samples were each transferred to a polypropylene microcentrifuge tube and stored at -60°C or lower. The concentration of compounds distributed in plasma and brain tissue was analyzed using LC-MS/MS, and the distribution in brain tissue compared to plasma was calculated as follows. Brain-to-plasma ratio = AUC(0-t) brain tissue /AUC(0-t) plasma [formula]
In the Brain-plasma Pharmacokinetics assay, when a brain-to-plasma ratio value was 0.05 or more and less than 0.1, + was indicated, when a brain-to-plasma ratio value was 0.1 or more and less than 0.25, ++ was indicated, and when a brain-to-plasma ratio value was more than 0.25, +++ was indicated.

phospho-ERK = phospho-ERK assay (AlphaLisa) in H358 cells; format: cell-based; conditions: Homo sapiens, NCI-H358, 1.5 hours incubation, read-out: pERK assay (IC50)
Protocol: H358 [20,000 cell/well] was contained in 40 µL of the cell culture solution (RPMI, 10% FBS, penicillin, streptomycin) and placed on a 384-well plate. After 24 hours, the serially diluted compound according to the Examples (concentration of minimum 0.13 nM, maximum 10 µM) was contained in 10 µL of the cell culture solution, put into wells containing cells, and incubated in a cell incubator for 1.5 hours. As a positive control group, the selective SHP2 inhibitor, TNO155 (Chemietek, US; concentration ranging from 0.13 nM to 10 µM) was used.
Thereafter, phospho-ERK was labeled using an AlphaLisa system from PerkinElmer according to the manufacturer's instructions, and then fluorescence (680 nm excitation wavelength, 615 nm emission wavelength) values were measured using a Varioskan equipment from Thermo. IC50 values were obtained using Graphad's Prism from the measured values depending on the concentration.
Intracellular SHP2 activity can be confirmed by measuring the degree of phosphorylation of ERK (extracellular signal regulated kinase), which represents Ras/Raf/ERK, a downstream signal pathway of SHP2. Inhibition of ERK phosphorylation by SHP2 inhibitors was confirmed through phospho-ERK analysis, which confirmed that the SHP2 inhibitors of the present disclosure have excellent activity in inhibiting ERK phosphorylation mediated by SHP2.

SHP2 = target: T1, SHP2 (Homo sapiens, UniProt Q06124); assay: Phosphatase assay (PTPase assay, DiFMUP substrate); format: biochemical; conditions: full length SHP2 100 pM activated with SHP2 activating peptide, DiFMUP 80 µM, 2 hours; read-out: PTPase assay (IC50)
T1 construct: SHP2 (full length, diluted to 100 pM final concentration in reaction buffer, BPS bioscience, US); purchased BPS bioscience, US
T1 sequence (Q06124 1-593): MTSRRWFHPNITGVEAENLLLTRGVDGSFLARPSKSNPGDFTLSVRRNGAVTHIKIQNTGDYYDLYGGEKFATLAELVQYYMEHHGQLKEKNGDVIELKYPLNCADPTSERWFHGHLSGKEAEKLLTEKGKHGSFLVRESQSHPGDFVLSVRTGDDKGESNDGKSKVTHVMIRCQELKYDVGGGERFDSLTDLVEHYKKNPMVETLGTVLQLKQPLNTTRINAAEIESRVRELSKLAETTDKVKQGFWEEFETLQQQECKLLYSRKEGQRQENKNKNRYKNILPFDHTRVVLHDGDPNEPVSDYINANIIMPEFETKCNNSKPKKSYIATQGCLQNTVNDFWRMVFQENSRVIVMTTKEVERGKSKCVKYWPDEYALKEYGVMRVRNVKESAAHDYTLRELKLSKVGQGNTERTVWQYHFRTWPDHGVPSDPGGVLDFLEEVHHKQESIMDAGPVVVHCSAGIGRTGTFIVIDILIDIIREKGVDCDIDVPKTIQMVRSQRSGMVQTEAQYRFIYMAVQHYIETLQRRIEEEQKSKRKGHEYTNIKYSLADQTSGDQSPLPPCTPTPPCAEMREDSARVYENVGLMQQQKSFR
Protocol: IC50 values were measured using 6,8-difluoro-4-methylumbelliferyl phosphate (DiFMUP) as a substrate. The reaction was performed in a 384-well plate, and fluorescence measurement values were obtained using an EnVision plate reader from PerkinElmer.
SHP2 (full length, diluted to 100 pM final concentration in reaction buffer, BPS bioscience, US) was incubated with the SHP2 activating peptide in reaction buffer (60 mM HEPES (pH 7.2), 75 mM NaCl, 75 mM KCl, 1 mM EDTA, 5 mM DTT, 0.05% P-20) for 30 minutes to activate SHP2. After activation, DMSO [1% (V/V) or the compound according to the Examples (concentration ranging from 0.6 nM to 10 µM)] was added. As a positive control group, the selective SHP2 inhibitors SHP099 (6-(4-amino-4-methylpiperidin-1-yl)-3-(2,3-dichlorophenyl)pyrazin-2-amine, FOCUS bioscience, Austrailia; concentration ranging from 0.6 nM to 10 µM) and TNO155 ((3S,4S)-8-(6-amino-5-((2-amino-3-chloropyridin-4-yl)thio)pyrazin-2-yl)-3-methyl-2-oxa-8-azaspiro[4.5]decan-4-amine, Chemietek, US; concentration ranging from 0.6 nM to 10 µM) were used. [drawing 184]
DiFMUP (80 µM) was added to the reaction and incubated for a total of 2 hours to allow for the reaction to proceed. Thereafter, fluorescence (340 nm excitation, 450 nm emission) values were measured. IC50 values were obtained using Graphad's Prism from the measured values depending on the concentration.
In the phosphatase assay (PTPase assay), when an IC50 value was 100 nM or more, + was indicated, when an IC50 value was 3 nM or more and less than 100 nM, ++ was indicated, and when an IC50 value was less than 3 nM, +++ was indicated.

Structure (SMILES)	IC50 (H358 cells) [nM]	IC50 (phospho-ERK) [nM]	IC50 (SHP2) [nM]	Kp at 24 h ([1]; male, CD-1 (ICR), brain/plasma)	Kp at 24 h ([1]; brain)
Cn1cnc2ccc(Sc3cnc(N4CCC5(CC4)Cc4ccccc4[C@H]5N)cn3)c(Cl)c2c1=O [Example 7, (S)-6-((5-(1-amino-1,3-dihydrospiro[indene-2,4'-piperidin]-1'-yl)pyrazin-2-yl)thio)-5-chloro-3-methylquinazolin-4(3H)-one]	< 10	< 45	< 3	–	0.1 to 0.25
COC(C)(C)Cn1cnc2ccc(Sc3cnc(N4CCC5(CC4)CO[C@@H](C)[C@H]5N)cn3)c(Cl)c2c1=O [Example 18, 6-((5-((3S,4S)-4-amino-3-methyl-2-oxa-8-azaspiro[4.5]decan-8-yl)pyrazin-2-yl)thio)-5-chloro-3-(2-methoxy-2-methylpropyl)quinazolin-4(3H)-one]	< 10	< 45	< 3	> 0.25	–
COC(C)(C)Cn1cnc2ccc(Sc3cnc(N4CCC5(CC4)Cc4ncsc4[C@H]5N)cn3)c(Cl)c2c1=O [Example 32, (S)-6-((5-(6-amino-4,6-dihydrospiro[cyclopenta[d]thiazole-5,4'-piperidin]-1'-yl)pyrazin-2-yl)thio)-5-chloro-3-(2-methoxy-2-methylpropyl)quinazolin-4(3H)-one]	< 10	< 45	–	0.1 to 0.25	–
COC(C)(C)Cn1cnc2ccc(Sc3nc(CO)c(N4CCC5(CC4)Cc4ccccc4[C@H]5N)nc3C)c(Cl)c2c1=O [Example 35, (S)-6-((5-(1-amino-1,3-dihydrospiro[indene-2,4'-piperidin]-1'-yl)-6-(hydroxymethyl)-3-methylpyrazin-2-yl)thio)-5-chloro-3-(2-methoxy-2-methylpropyl)quinazolin-4(3H)-one]	< 10	45 to 1500	< 3	0.1 to 0.25	–
COC(C)(C)Cn1cnc2ccc(Sc3ncc(N4CCC5(CC4)CO[C@@H](C)[C@H]5N)nc3N)c(Cl)c2c1=O [Example 37, 6-((3-amino-5-((3S,4S)-4-amino-3-methyl-2-oxa-8-azaspiro[4.5]decan-8-yl)pyrazin-2-yl)thio)-5-chloro-3-(2-methoxy-2-methylpropyl)quinazolin-4(3H)-one]	10 to 50	45 to 1500	3 to 100	0.05 to 0.1	–
Cn1ccc2ccc(Sc3cnc(N4CCC5(CC4)Cc4ccccc4[C@H]5N)cn3)c(Cl)c2c1=O [Example 41, (S)-7-((5-(1-amino-1,3-dihydrospiro[indene-2,4'-piperidin]-1'-yl)pyrazin-2-yl)thio)-8-chloro-2-methylisoquinolin-1(2H)-one]	10 to 50	45 to 1500	< 3	> 0.25	–

Continued, in another order:

IC50 (H358 cells) [nM]	IC50 (phospho-ERK) [nM]	IC50 (SHP2) [nM]	Kp at 24 h ([1]; male, CD-1 (ICR), brain/plasma)	Structure (SMILES)	Kp at 24 h ([1]; brain)
< 10	< 45	< 3	0.05 to 0.1	CC(C)(O)Cn1cnc2ccc(Sc3cnc(N4CCC5(CC4)Cc4ccccc4[C@H]5N)cn3)c(Cl)c2c1=O [Example 25, (S)-6-((5-(1-amino-1,3-dihydrospiro[indene-2,4'-piperidin]-1'-yl)pyrazin-2-yl)thio)-5-chloro-3-(2-hydroxy-2-methylpropyl)quinazolin-4(3H)-one]	–
< 10	< 45	< 3	> 0.25	COC(C)(C)Cn1cnc2ccc(Sc3cnc(N4CCC5(CC4)Cc4ccccc4[C@H]5N)cn3)c(Cl)c2c1=O [Example 27, (S)-6-((5-(1-amino-1,3-dihydrospiro[indene-2,4'-piperidin]-1'-yl)pyrazin-2-yl)thio)-5-chloro-3-(2-methoxy-2-methylpropyl)quinazolin-4(3H)-one]	–
< 10	45 to 1500	3 to 100	> 0.25	COC(C)(C)Cn1cnc2ccc(Sc3cnc(N4CCC5(CC4)Cc4ccccc4[C@H]5N)cn3)cc2c1=O [Example 29, (S)-6-((5-(1-amino-1,3-dihydrospiro[indene-2,4'-piperidin]-1'-yl)pyrazin-2-yl)thio)-3-(2-methoxy-2-methylpropyl)quinazolin-4(3H)-one]	–
< 10	< 45	< 3	0.05 to 0.1	COC(C)(C)Cn1cnc2ccc(Sc3ncc(N4CCC5(CC4)Cc4ccccc4[C@H]5N)nc3N)c(Cl)c2c1=O [Example 36, (S)-6-((3-amino-5-(1-amino-1,3-dihydrospiro[indene-2,4'-piperidin]-1'-yl)pyrazin-2-yl)thio)-5-chloro-3-(2-methoxy-2-methylpropyl)quinazolin-4(3H)-one]	–
< 10	45 to 1500	< 3	> 0.25	COC(C)(C)Cn1ccc2ccc(Sc3cnc(N4CCC5(CC4)Cc4ccccc4[C@H]5N)cn3)c(Cl)c2c1=O [Example 43, (S)-7-((5-(1-amino-1,3-dihydrospiro[indene-2,4'-piperidin]-1'-yl)pyrazin-2-yl)thio)-8-chloro-2-(2-methoxy-2-methylpropyl)isoquinolin-1(2H)-one]	–
< 10	45 to 1500	3 to 100	> 0.25	COC(C)(C)Cn1ccc2ccc(Sc3cnc(N4CCC5(CC4)Cc4ccccc4[C@H]5N)cn3)cc2c1=O [Example 44, (S)-7-((5-(1-amino-1,3-dihydrospiro[indene-2,4'-piperidin]-1'-yl)pyrazin-2-yl)thio)-2-(2-methoxy-2-methylpropyl)isoquinolin-1(2H)-one]	–
< 10	45 to 1500	< 3	0.1 to 0.25	Cn1ccc2ccc(Sc3cnc(N4CCC5(CC4)Cc4ccccc4[C@H]5N)cn3)cc2c1=O [Example 45, (S)-7-((5-(1-amino-1,3-dihydrospiro[indene-2,4'-piperidin]-1'-yl)pyrazin-2-yl)thio)-2-methylisoquinolin-1(2H)-one]	–
